Laboratory results taken from publication PMC7957705 (Molecules, 2021).
“Also recorded” adds a separate entry of the source. Marks after values point to notes of the source that are not given here. Where a SMILES comes first, the peptide text is derived from it. Bridges are numbered along the chain shown (N, C = ends). Triazole bridges read from a SMILES are 1,4-linked. [ ]: non-standard residue; d: D form. The star is where a group is joined. Benzoyl(4-guanidino) = N=C(N)Nc1ccc(C(=O)*)cc1; Aha = [N-]=[N+]=NCC[C@H](N)C(=O)O; β3hV = CC(C)[C@H](N)CC(=O)O; Nle = CCCC[C@H](N)C(=O)O; Pra = C#CC[C@H](N)C(=O)O

Columns and labels:
[1] = system: high-fat diet-induced obese C57BL/6 mice; assay: Diet-induced obesity model: blood biochemistry; format: in vivo, mouse; settings: for Insulin / Total Cholesterol / Triglyceride: High-Fat Diet mice
Procedure: Male C57BL/6 mice at 4 weeks of age were provided by BioLasco Taiwan (under Charles River Laboratories Licensee). All animals were maintained in an environment with well-controlled temperature (20–24 °C) and humidity (30–70%) with 12 h light/dark cycles. Free access to standard lab diet (MFG (Oriental Yeast Co., Ltd., Japan)) and autoclaved tap water was granted. All aspects of this work including housing, experimentation, and animal disposal were performed in general accordance with the “Guide for the Care and Use of Laboratory Animals: Eighth Edition” (National Academies Press, Washington, D.C., 2011) in our laboratory animal facility accredited by the […]. In addition, the protocol for animal care and use was reviewed and approved by the Institutional Animal Care and Use Committee (IACUC) at Pharmacology Discovery Services Taiwan, Ltd.
ALT (Alanine aminotransferase) and AST (Aspartate aminotransferase) assay kit (Denka Seiken, Japan), Cholesterol assay kit (Denka, Japan), Creatinine assay kit (Denka Seiken, Japan), Mouse insulin ELISA kit (Crystal chem, Elk Grove Village, IL, USA), Na^+/K^+ assay kit (Toshiba, Japan), Triglyceride assay kit (Sentinel Diagnostics, Milano, Italy) and Water for injection (Tai-Yu, Taiwan).
The protocol was performed for all groups and all animals. Male C57BL/6 mice were fed a high-fat diet (HFD) (60% of calories) or a standard chow diet (STD) from 4 weeks of age. Thirty (30) mice were fed the HFD and 10 mice were fed the STD (for 8 weeks before treatment) for a total of 20 weeks. The mice assigned to the STD diet were maintained on this diet throughout the study as a reference group of lean control mice. From Week 9, HFD-fed mice were grouped by body weight before dosing. Body weight was recorded three times weekly from Week 9. Food/water intake was recorded twice weekly from Week 9. Blood chemistry analyzes were performed in Weeks 8 (before dosing, Day 56), 16 (Day 113) and 20 (Day 141), including serum insulin, total cholesterol (T-CHO), triglyceride (TG), alanine aminotransferase (ALT), aspartate aminotransferase (AST), uric acid (UA), creatinine, potassium (K^+) and sodium (Na^+). At the termination in Week 20 (Day 141), the adipose tissue weight, including epididymal, mesenteric, inguinal, retroperitoneal, and brown fat, was measured after the animals were sacrificed. Two-way ANOVA followed by Bonferroni’s tests were applied to ascertain the difference between vehicle control and treated animals. Significance was set at p < 0.05 level. The following parameters were measured: (1) body weight three times weekly; (2) food/water intake twice weekly; (3) blood chemistry in Weeks 8 (before dosing), 16 and 20 including glucose, insulin, serum lipids (triglycerides (TG), total cholesterol (TC), AST, alanine aminotransferase (ALT), uric acid, creatinine, potassium and sodium through 16-h fasting animals; and finally, (4) total body fat (including visceral and subcutaneous fat) in Week 20.

[2] = target: T1, human MCH-R1 (Homo sapiens, UniProt Q99705); assay: MCH-induced cytosolic Ca2+ ion mobilization, antagonist effect; format: cell-based
T1 construct: expressed in transfected cells
Procedure: The functional assay was run onto cells expressing the hMCH-R1 receptor, as described in Wang et al.. In brief, the cells are suspended in DMEM buffer (Invitrogen), then distributed in microplates at a density of 4.104 cells/well. The fluorescent probe (Fluo4 Direct, Invitrogen) mixed with probenecid in Hanks’ Balanced Salt solution (HBSS) (Invitrogen) complemented with 20 mM HEPES (Invitrogen) (pH 7.4) is then added into each well and equilibrated with the cells for 60 min at 37 °C, then 15 min at 22 °C. Then, the assay plates are positioned in a microplate reader (CellLux, PerkinElmer) which is used for the addition of the test compound, reference agonist or HBSS buffer (basal control), and the measurements of changes in fluorescence intensity, which varies proportionally to the free cytosolic Ca^2+ ion concentration. For stimulated control measurements, MCH at 300 nM is added in separate assay wells. The results are expressed as a percentage of the control response to 300 nM MCH. The standard reference agonist is MCH, which is tested in each experiment at several concentrations to generate a concentration-response curve from which its EC50 value is calculated. For the antagonist effect, the results are expressed as a percentage inhibition of the control response to 30 nM MCH, which was added to all tested wells and controls 5 min after the candidate products.

[3] = 5 and 10 mg/kg i.p. once daily for 12 weeks, day 113 and day 141
[4] = 5 or 10 mg/kg i.p. daily, HFD mice
[5] = 5 or 10 mg/kg i.p. daily, Day 113 and Day 141
[6] = 5 mg/kg QD x 12 weeks IP, Day 56 (before dosing), mean
[7] = 5 mg/kg QD x 12 weeks IP, Day 113, mean
[8] = 5 mg/kg QD x 12 weeks IP, Day 141, mean
[9] = 10 mg/kg QD x 12 weeks IP, Day 56 (before dosing), mean
[10] = 10 mg/kg QD x 12 weeks IP, Day 113, mean
[11] = 10 mg/kg QD x 12 weeks IP, Day 141, mean

T1 sequence (Q99705 whole entry): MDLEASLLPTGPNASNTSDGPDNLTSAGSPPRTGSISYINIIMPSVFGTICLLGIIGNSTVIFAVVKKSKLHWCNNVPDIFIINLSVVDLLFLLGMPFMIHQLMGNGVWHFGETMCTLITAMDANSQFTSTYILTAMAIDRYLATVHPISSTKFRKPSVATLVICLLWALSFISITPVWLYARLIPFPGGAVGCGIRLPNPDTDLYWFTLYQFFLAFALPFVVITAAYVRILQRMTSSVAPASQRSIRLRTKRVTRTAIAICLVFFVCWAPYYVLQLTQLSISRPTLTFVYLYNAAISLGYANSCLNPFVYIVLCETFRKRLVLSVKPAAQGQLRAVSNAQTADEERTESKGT

`CCCC[C@@H]1NC(=O)[C@@H](NC(=O)c2ccc(NC(=N)N)cc2)CCn2cc(nn2)C[C@@H](C(=O)N[C@@H](Cc2c[nH]c3ccccc23)C(=O)O)NC(=O)[C@@H]2CCCN2C(=O)[C@H](CCCNC(=N)N)NC(=O)C[C@H](C(C)C)NC(=O)[C@H](CCCNC(=N)N)NC(=O)[C@H](CC(C)C)NC1=O` [GPS18169] ({Benzoyl(4-guanidino)}-[Aha][Nle]LR[β3hV]RP[Pra]W-OH; triazole 1-8) was tested, and the insulin level ([1]; 10 mg/kg daily, 12 weeks, vs vehicle treated/normal diet) was “back to the control”, the “serum alanine aminotransferase (ALT) level vs vehicle” value [1, 3] was “not associated with any significant effect” and the “serum aspartate aminotransferase (AST) level vs vehicle” value [1, 3] was “not associated with any significant effect”. For the same compound, the total cholesterol level [1, 4] was “remained high, despite a modest reduction; also recorded: improvement”, the triglycerides level [1, 4] was “remained high, despite a modest reduction; also recorded: improvement” and the insulin level ([1]; 5 or 10 mg/kg i.p. daily, after 12 weeks of treatment, HFD mice) was “normalization; also recorded: significant reduction; also recorded: improvement; also recorded: return to almost normal”. For the same compound, the “serum creatinine level vs vehicle” value [1, 5] was “did not lead to any significant effect”, the “serum potassium (K+) level vs vehicle” value [1, 5] was “did not lead to any significant effect” and the “serum sodium (Na+) level vs vehicle” value [1, 5] was “did not lead to any significant effect”. The “serum uric acid (UA) level vs vehicle” value ([1]; 5 or 10 mg/kg i.p. daily, Week 16 (Day 113) and Week 20 (Day 141)) was “did not lead to any significant effect”, the Insulin [1, 6] was 909.5 pg/mL and the “Total Cholesterol” value [1, 6] was 158.3 mg/dL. For the same compound, the Triglyceride [1, 6] was 121.8 mg/dL, the Insulin [1, 7] was 1983.8 pg/mL and the “Total Cholesterol” value [1, 7] was 143.1 mg/dL. For the same compound, the Triglyceride [1, 7] was 115.3 mg/dL, the “Total Cholesterol” value [1, 8] was 135.6 mg/dL and the Triglyceride [1, 8] was 108.9 mg/dL. The Insulin [1, 9] was 1068.0 pg/mL, the “Total Cholesterol” value [1, 9] was 155.6 mg/dL and the Triglyceride [1, 9] was 122.9 mg/dL. The Insulin [1, 10] was 1549.7 pg/mL, the “Total Cholesterol” value [1, 10] was 135.7 mg/dL and the Triglyceride [1, 10] was 108.3 mg/dL. The Insulin [1, 11] was 957.0 * pg/mL, the “Total Cholesterol” value [1, 11] was 132.1 mg/dL and the Triglyceride [1, 11] was 102.1 mg/dL. For the same compound, the “antagonistic functionality (in words)” value [2] was “high picomolar range” and the Ki ([2]; antagonism of MCH-induced cytosolic Ca2+ mobilization, read-out: Ki (functionality, antagonism at MCH-R1)) was 0.028 nM.
